Data reported in US20230159593A1, “CY[…]” (priority 2020, published 2023).
Read-outs that look alike come from different tables or passages of the source.

Assays:
HIV-1 (GFP) = test: Infection of U87 cells with HIV-1 (GFP), titration of inhibitors; assay type: cell-based; settings: for IC50: Human immunodeficiency virus 1, U-87 MG; for Potency relative to CsA: U87 cells, HIV-1 (GFP)
Method: FIG. 27: As explained in Example 3, this figure illustrates: in panel A, infection of U87 cells with HIV-1 (GFP), with a titration of inhibitors from 10 μm-0.04 μM (n=2±SEM), the vertical axis in each graph representing infectivity as a % of DMSO control; in panel B, Western blot of CypA in Huh7 cells 48 hrs after treatment with and without JW4-10.
Also used as a control in the experiments (see FIG. 27A) was SmBz ([Sarcosine-3(4-methylbenzoate)]-CsA). SmBz is disclosed in Malouitre et al. Biochem J. 2009 Dec. 14; 425(1):137-48. The anti HIV activity of SmBz is described in Rasaiyaah et al. Nature, 2013. 503(7476): p. 402-5.

IFN-β mRNA = assay type: cell-based, Homo sapiens; settings: HCV-replicating Huh7 cells, 5 μM, 48 h
HCVcc (J6/JFH1-RLuc) = test: microbe, parasite or virus in culture; assay type: cell-based, Hepatitis C Virus; settings: for IC50: Hepatitis C virus; for Effect on HCVcc infection at single dose: 72 h
HCV replication (SGR) = test: microbe, parasite or virus in culture; assay type: cell-based; settings: Hepatitis C virus
[1] = system: HCV replication organelle (DMVs); assay type: cell-based, Homo sapiens; settings: 5×EC90, 24 hours post-transfection
IRF1 target genes = assay type: cell-based, Homo sapiens; settings: HCV-replicating Huh7 cells, 5 μM, 48 hpe
CypA = molecular target: T1, CypA (Homo sapiens, UniProt P62937); assay type: cell-based
T1 construct: endogenous in cells; host or cells: Huh7 and Huh7.5 cells
T1 sequence (P62937 whole entry): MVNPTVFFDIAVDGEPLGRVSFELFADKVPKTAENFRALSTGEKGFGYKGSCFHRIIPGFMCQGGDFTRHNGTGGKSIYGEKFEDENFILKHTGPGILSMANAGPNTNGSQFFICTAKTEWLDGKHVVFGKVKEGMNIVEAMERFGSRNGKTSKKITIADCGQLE

CypB = molecular target: T2, CypB (Homo sapiens, UniProt P23284); assay type: cell-based; settings: Huh7 cells, 1 μM
T2 construct: endogenous in cells; host or cells: Huh7 cells
T2 sequence (P23284 34-216): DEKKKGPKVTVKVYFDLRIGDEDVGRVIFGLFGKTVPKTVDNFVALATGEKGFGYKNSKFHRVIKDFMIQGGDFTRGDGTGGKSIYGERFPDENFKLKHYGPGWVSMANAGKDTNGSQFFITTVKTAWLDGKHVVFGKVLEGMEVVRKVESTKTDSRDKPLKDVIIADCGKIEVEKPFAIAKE

CypD = molecular target: T3, CypD (Homo sapiens, UniProt P30405); assay type: cell-based; settings: Huh7 cells, 1 μM, 24 hours
T3 construct: endogenous in cells; host or cells: Huh7 cells
T3 sequence (P30405 30-207): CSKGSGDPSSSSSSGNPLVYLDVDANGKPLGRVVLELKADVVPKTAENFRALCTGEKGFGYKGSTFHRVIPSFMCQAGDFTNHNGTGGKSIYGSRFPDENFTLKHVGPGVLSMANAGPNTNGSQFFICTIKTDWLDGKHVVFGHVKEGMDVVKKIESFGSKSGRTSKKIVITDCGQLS

[2] = Huh7.5, read-out: IC50 HCVcc infection, Huh7.5
[3] = Huh-7, read-out: IC50 HCVcc infection, Huh7 NT c7
[4] = Huh7.5, Huh7.5, read-out: IC50 Replication (SGR)
[5] = Huh7.5-CTRL, read-out: IC50 Replication (SGR)
[6] = Huh-7, Huh7, read-out: IC50 Replication (SGR)
[7] = Huh-7, Huh7 MAVS KO, read-out: IC50 Replication (SGR)
[8] = Huh-7, Huh7 NT c7, read-out: IC50 Replication (SGR)
[9] = Huh-7, read-out: IC50 Replication (SGR), Huh7 MAVS KO + C508R

SMILES	IC50 (HIV-1 (GFP))	Potency relative to CsA (HIV-1 (GFP))	Induction of IFN-β expression (IFN-β mRNA)	IC50 (HCVcc (J6/JFH1-RLuc); [2])	IC50 (HCVcc (J6/JFH1-RLuc); [3])	IC50 (HCV replication (SGR); [4])	IC50 (HCV replication (SGR); [5])	IC50 (HCV replication (SGR); [6])	IC50 (HCV replication (SGR); [7])	IC50 (HCV replication (SGR); [8])	IC50 (HCV replication (SGR); [9])	further results
CC[C@@H]1NC(=O)[C@H]([C@H](O)[C@H](C)C/C=C/CCCN2CCN(CC(=O)N[C@H](C(=O)N3C[C@H](O)C[C@H]3C(=O)N[C@@H](C)c3ccc(-c4scnc4C)cc3)C(C)(C)C)CC2)N(C)C(=O)[C@H](C(C)C)N(C)C(=O)[C@H](CC(C)C)N(C)C(=O)[C@H](CC(C)C)N(C)C(=O)[C@@H](C)NC(=O)[C@H](C)NC(=O)[C@H](CC(C)C)N(C)C(=O)[C@H](C(C)C)NC(=O)[C@H](CC(C)C)N(C)C(=O)CN(C)C1=O [JW4-21]	700 ± 80 nM	decreased potency										
CC[C@@H]1NC(=O)[C@H]([C@H](O)[C@H](C)C/C=C/CCCn2ccnc2)N(C)C(=O)[C@H](C(C)C)N(C)C(=O)[C@H](CC(C)C)N(C)C(=O)[C@H](CC(C)C)N(C)C(=O)[C@@H](C)NC(=O)[C@H](C)NC(=O)[C@H](CC(C)C)N(C)C(=O)[C@H](C(C)C)NC(=O)[C@H](CC(C)C)N(C)C(=O)CN(C)C1=O [CsA-like, [Gly-(1S,2R,E)-8-(1H-imidazole-1-yl)-1-hydroxy-2-methyloct-4-ene]^1 CsA]			capable of inducing IFN-β expression	316 ± 83 nM	123 ± 23 nM	1370 ± 197 nM	527 ± 154 nM	266 ± 37 nM	160 ± 23 nM	184 ± 26 nM	141 ± 28 nM	IC50 (HCVcc (J6/JFH1-RLuc); Huh-7, read-out: IC50 HCVcc infection, Huh7 PKR KO c4): 433 ± 101 nM; IC50 (HCV replication (SGR); Huh7.5-Mda5, read-out: IC50 Replication (SGR)): 950 ± 247 nM; IC50 (HCV replication (SGR); Huh7.5-RIG-I/Mda5, read-out: IC50 Replication (SGR)): 1230 ± 298 nM; IC50 (HCV replication (SGR); Huh7.5-RIG-I, read-out: IC50 Replication (SGR)): 686 ± 181 nM; IC50 (HCV replication (SGR); Huh-7, Huh7 IRF1 KO c10, read-out: IC50 Replication (SGR)): 1220 ± 224 nM; IC50 (HCV replication (SGR); Huh-7, Huh7 IRF1 KO c11, read-out: IC50 Replication (SGR)): 1590 ± 284 nM; IC50 (HCV replication (SGR); Huh-7, Huh7 PKR KO c1, read-out: IC50 Replication (SGR)): 971 ± 186 nM; IC50 (HCV replication (SGR); Huh-7, Huh7 PKR KO c4, read-out: IC50 Replication (SGR)): 1250 ± 327 nM
CC[C@@H]1NC(=O)[C@H]([C@H](O)[C@H](C)C/C=C/CCCCC(=O)N[C@H](C(=O)N2C[C@H](O)C[C@H]2C(=O)N[C@@H](C)c2ccc(-c3scnc3C)cc2)C(C)(C)C)N(C)C(=O)[C@H](C(C)C)N(C)C(=O)[C@H](CC(C)C)N(C)C(=O)[C@H](CC(C)C)N(C)C(=O)[C@@H](C)NC(=O)[C@H](C)NC(=O)[C@H](CC(C)C)N(C)C(=O)[C@H](C(C)C)NC(=O)[C@H](CC(C)C)N(C)C(=O)CN(C)C1=O [CsA-Prtc1, [Gly-(1S,2R,E)-10-amido (E3 ligase ligand)-1-hydroxy-2-methyloct-4-ene]^1 CsA]	90 ± 130 nM		not	14 ± 3 nM	12 ± 2 nM	55 ± 7 nM	70 ± 13 nM	16 ± 2 nM	10 ± 1 nM	9 ± 1 nM	8 ± 1 nM	Number and size of DMVs [1]: significant reduction in the number and size of DMVs; Induction of IRF1 target gene expression (IRF1 target genes): did not induce expression of IRF1 target genes; Proteasome dependence of CypA degradation (CypA; 1 μM with or without MG132 (10 μM), 24 hours): proteasome-dependent; CypA degradation (CypA; Huh7 and Huh7.5 cells, 1 μM, 48 h): degradation of CypA; CypA degradation (CypA; Huh7 cells, 48 hrs after treatment (FIG. 27B)): degradation of CypA; IC50 (HCVcc (J6/JFH1-RLuc); Huh-7, read-out: IC50 HCVcc infection, Huh7): 3 ± 1 nM; Effect on HCVcc infection at single dose (HCVcc (J6/JFH1-RLuc); Huh7, 1 μM): completely inhibited HCVcc infection; Effect on HCVcc infection at single dose (HCVcc (J6/JFH1-RLuc); Huh7.5, 1 μM): completely inhibited HCVcc infection; CypB protein expression (CypB; 24 hours): minimal impact; CypB protein expression (CypB; 48 hours): CypB degradation was observed; CypD protein expression (CypD): minimal impact
CC[C@@H]1NC(=O)[C@H]([C@H](O)[C@H](C)C/C=C/CCOCCOCCOCCN[C@H](C(=O)N2C[C@H](O)C[C@H]2C(=O)N[C@@H](C)c2ccc(-c3scnc3C)cc2)C(C)(C)C)N(C)C(=O)[C@H](C(C)C)N(C)C(=O)[C@H](CC(C)C)N(C)C(=O)[C@H](CC(C)C)N(C)C(=O)[C@@H](C)NC(=O)[C@H](C)NC(=O)[C@H](CC(C)C)N(C)C(=O)[C@H](C(C)C)NC(=O)[C@H](CC(C)C)N(C)C(=O)CN(C)C1=O [JW4-20]	120 ± 50 nM	increased potency										
